In ChEMBL document CHEMBL4842347, “Structure-activity relationship and biochemical evaluation of novel fibroblast activation protein and prolyl endopeptidase inhibitors with α-ketoamide warheads” (Eur J Med Chem, 2021):
pIC50: −log10 of the molar value. Each block holds one molecule with its values, some of them ahead of it. The source made the active and inactive calls. The calls are words filed in the database; no cut-off is given here.

How the values were obtained:
HepG2 = assay: Cytotoxicity against human HepG2 cells assessed as reduction in cell viability incubated for 72 hrs measured by […]-based colorimetric assay; assay type: functional
HL-60 = assay: Cytotoxicity against human HL-60 cells assessed as reduction in cell viability incubated for 72 hrs measured by […]-based colorimetric assay; assay type: functional
CCRF-CEM = assay: Cytotoxicity against human CCRF-CEM cells assessed as reduction in cell viability incubated for 72 hrs measured by […]-based colorimetric assay; assay type: functional
HeLa = assay: Cytotoxicity against human HeLa cells assessed as reduction in cell viability incubated for 72 hrs measured by […]-based colorimetric assay; assay type: functional
[1] = Inhibition of PREP (unknown origin) using fluorogenic substrate by spectrometric assay; set-up: species or system Homo sapiens
Dipeptidyl peptidase 4 = Dipeptidyl peptidase 4 (Homo sapiens, UniProt P27487); assay: Inhibition of SF-tagged DPP4 (unknown origin) expressed in Drosophila S2 cells using fluorogenic substrate by spectrometric analysis; assay type: cell-based
Chain of Dipeptidyl peptidase 4 (P27487 whole entry): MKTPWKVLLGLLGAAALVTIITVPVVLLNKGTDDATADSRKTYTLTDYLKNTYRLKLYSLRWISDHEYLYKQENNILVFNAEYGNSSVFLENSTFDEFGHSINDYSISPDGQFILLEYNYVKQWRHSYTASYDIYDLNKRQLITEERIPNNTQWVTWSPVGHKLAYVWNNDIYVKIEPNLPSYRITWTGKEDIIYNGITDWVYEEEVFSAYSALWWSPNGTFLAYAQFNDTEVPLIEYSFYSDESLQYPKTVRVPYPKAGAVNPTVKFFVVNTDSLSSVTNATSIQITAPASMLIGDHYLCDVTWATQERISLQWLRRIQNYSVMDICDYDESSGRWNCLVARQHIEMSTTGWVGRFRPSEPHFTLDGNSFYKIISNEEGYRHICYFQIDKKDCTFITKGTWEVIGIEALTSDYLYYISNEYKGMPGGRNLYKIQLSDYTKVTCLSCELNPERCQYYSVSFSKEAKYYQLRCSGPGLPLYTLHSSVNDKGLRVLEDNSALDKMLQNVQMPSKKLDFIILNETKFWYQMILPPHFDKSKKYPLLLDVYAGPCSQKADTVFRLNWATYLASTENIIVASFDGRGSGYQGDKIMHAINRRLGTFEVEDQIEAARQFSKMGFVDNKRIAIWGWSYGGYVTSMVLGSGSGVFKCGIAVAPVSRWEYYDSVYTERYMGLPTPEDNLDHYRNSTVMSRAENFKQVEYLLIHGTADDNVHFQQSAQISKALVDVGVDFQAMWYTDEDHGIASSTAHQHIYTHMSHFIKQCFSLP

SMILES: CC(C)(C)CNC(=O)C(=O)[C@@H]1CCCN1C(=O)CNC(=O)c1ccnc2ccccc12
Activity (HepG2): inactive | Activity (HL-60): inactive | Activity (CCRF-CEM): inactive | Activity (HeLa): inactive

SMILES: COC(=O)[C@H](CCC(=O)NCc1ccccc1)NC(=O)CNC(=O)C(=O)[C@@H]1CCCN1C(=O)CNC(=O)c1ccnc2ccccc12
Activity (HepG2): inactive | Activity (HL-60): inactive | Activity (CCRF-CEM): inactive | Activity (HeLa): inactive

SMILES: O=C(CNC(=O)C(=O)[C@@H]1CCCN1C(=O)CNC(=O)c1ccnc2ccccc12)NC1CC1
Activity (HepG2): inactive | Activity (HL-60): inactive | Activity (CCRF-CEM): inactive | Activity (HeLa): inactive

SMILES: CC(C)NC(=O)C(=O)[C@@H]1CCCN1C(=O)CNC(=O)c1ccnc2ccccc12
Activity (HepG2): inactive | Activity (HL-60): inactive | Activity (CCRF-CEM): inactive | Activity (HeLa): inactive

SMILES: O=C(NC(c1ccccc1)c1ccccc1)C(=O)[C@@H]1CCCN1C(=O)CNC(=O)c1ccnc2ccccc12
Activity (HepG2): inactive | Activity (HL-60): inactive | Activity (CCRF-CEM): inactive | Activity (HeLa): inactive

SMILES: O=CCNC(=O)CNC(=O)C(=O)[C@@H]1CCCN1C(=O)CNC(=O)c1ccnc2ccccc12
Activity (HepG2): inactive | Activity (HL-60): inactive | Activity (CCRF-CEM): inactive | Activity (HeLa): inactive

SMILES: COC(=O)CNC(=O)C(=O)[C@@H]1CCCN1C(=O)CNC(=O)c1ccnc2ccccc12
Activity (HepG2): inactive | Activity (HL-60): inactive | Activity (CCRF-CEM): inactive | Activity (HeLa): inactive

SMILES: O=C(CNC(=O)C(=O)[C@@H]1CCCN1C(=O)CNC(=O)c1ccnc2ccccc12)NCc1ccccc1
Activity (HepG2): inactive | Activity (HL-60): inactive | Activity (CCRF-CEM): inactive | Activity (HeLa): inactive

SMILES: COC(=O)[C@H](CC(=O)OCc1ccccc1)NC(=O)CNC(=O)C(=O)[C@@H]1CCCN1C(=O)CNC(=O)c1ccnc2ccccc12
Activity (HepG2): inactive | Activity (HL-60): inactive | Activity (CCRF-CEM): inactive | Activity (HeLa): inactive

SMILES: CCCCCCNC(=O)CNC(=O)C(=O)[C@@H]1CCCN1C(=O)CNC(=O)c1ccnc2ccccc12
Activity (HepG2): inactive | Activity (HL-60): inactive | Activity (CCRF-CEM): inactive | Activity (HeLa): inactive

pIC50 [1]: 9.31 | pIC50 (Dipeptidyl peptidase 4): < 5.40
SMILES: O=C(NCC(=O)N1CCOCC1)C(=O)[C@@H]1CCCN1C(=O)CNC(=O)c1ccnc2ccccc12
Activity (HepG2): inactive | Activity (HL-60): inactive | Activity (CCRF-CEM): inactive | Activity (HeLa): inactive

pIC50 [1]: 6.49 | pIC50 (Dipeptidyl peptidase 4): < 5.40
SMILES: N#C[C@@H]1CCCN1C(=O)CNC(=O)c1ccnc2ccccc12

SMILES: O=C(NCCc1ccccc1)C(=O)[C@@H]1CCCN1C(=O)CNC(=O)c1ccnc2ccccc12
Activity (HepG2): inactive | Activity (HL-60): inactive | Activity (CCRF-CEM): inactive | Activity (HeLa): inactive

pIC50 [1]: 9.40
SMILES: CCCCCNC(=O)C(=O)[C@@H]1CCCN1C(=O)CNC(=O)c1ccnc2ccccc12
Activity (HepG2): inactive | Activity (HL-60): inactive | Activity (CCRF-CEM): inactive | Activity (HeLa): inactive

pIC50 [1]: 8.89 | pIC50 (Dipeptidyl peptidase 4): < 5.40
SMILES: COC(=O)[C@H](CCC(=O)O)NC(=O)CNC(=O)C(=O)[C@@H]1CCCN1C(=O)CNC(=O)c1ccnc2ccccc12
Activity (HepG2): inactive | Activity (HL-60): inactive | Activity (CCRF-CEM): inactive | Activity (HeLa): inactive

SMILES: COC(=O)[C@H](CCC(N)=O)NC(=O)CNC(=O)C(=O)[C@@H]1CCCN1C(=O)CNC(=O)c1ccnc2ccccc12
Activity (HepG2): inactive | Activity (HL-60): inactive | Activity (CCRF-CEM): inactive | Activity (HeLa): inactive

SMILES: CNC(=O)CNC(=O)C(=O)[C@@H]1CCCN1C(=O)CNC(=O)c1ccnc2ccccc12
Activity (HepG2): inactive | Activity (HL-60): inactive | Activity (CCRF-CEM): inactive | Activity (HeLa): inactive

SMILES: CCOC(=O)CNC(=O)C(=O)[C@@H]1CCCN1C(=O)CNC(=O)c1ccnc2ccccc12
Activity (HepG2): inactive | Activity (HL-60): inactive | Activity (CCRF-CEM): inactive | Activity (HeLa): inactive

pIC50 [1]: 9.59 | pIC50 (Dipeptidyl peptidase 4): < 5.52
SMILES: O=C(NCc1ccc(F)cc1)C(=O)[C@@H]1CCCN1C(=O)CNC(=O)c1ccnc2ccccc12
Activity (HepG2): inactive | Activity (HL-60): inactive | Activity (CCRF-CEM): inactive | Activity (HeLa): inactive

SMILES: COC(=O)C(NC(=O)C(=O)[C@@H]1CCCN1C(=O)CNC(=O)c1ccnc2ccccc12)C(C)C (some centres undefined)
Activity (HepG2): inactive | Activity (HL-60): inactive | Activity (CCRF-CEM): inactive | Activity (HeLa): inactive

SMILES: COC(=O)[C@H](CC(C)C)NC(=O)CNC(=O)C(=O)[C@@H]1CCCN1C(=O)CNC(=O)c1ccnc2ccccc12
Activity (HepG2): inactive | Activity (HL-60): inactive | Activity (CCRF-CEM): inactive | Activity (HeLa): inactive

SMILES: CC(C)NC(=O)CNC(=O)C(=O)[C@@H]1CCCN1C(=O)CNC(=O)c1ccnc2ccccc12
Activity (HepG2): inactive | Activity (HL-60): inactive | Activity (CCRF-CEM): inactive | Activity (HeLa): inactive

pIC50 [1]: 9.54 | pIC50 (Dipeptidyl peptidase 4): < 5.40
SMILES: COC(=O)[C@H](CCCCNC(=O)OCc1ccccc1)NC(=O)CNC(=O)C(=O)[C@@H]1CCCN1C(=O)CNC(=O)c1ccnc2ccccc12
Activity (HepG2): inactive | Activity (HL-60): inactive | Activity (CCRF-CEM): inactive | Activity (HeLa): inactive

SMILES: COc1ccc(CNC(=O)C(=O)[C@@H]2CCCN2C(=O)CNC(=O)c2ccnc3ccccc23)cc1
Activity (HepG2): inactive | Activity (HL-60): inactive | Activity (CCRF-CEM): inactive | Activity (HeLa): inactive

SMILES: O=C(NC1CCCCC1)C(=O)[C@@H]1CCCN1C(=O)CNC(=O)c1ccnc2ccccc12
Activity (HepG2): inactive | Activity (HL-60): inactive | Activity (CCRF-CEM): inactive | Activity (HeLa): inactive

SMILES: COC(=O)C(C)NC(=O)C(=O)[C@@H]1CCCN1C(=O)CNC(=O)c1ccnc2ccccc12 (mixture of isomers)
Activity (HepG2): inactive | Activity (HL-60): inactive | Activity (CCRF-CEM): inactive | Activity (HeLa): inactive

pIC50 [1]: 9.28 | pIC50 (Dipeptidyl peptidase 4): < 5.52
SMILES: CC(C)(C)OC(=O)CNC(=O)C(=O)[C@@H]1CCCN1C(=O)CNC(=O)c1ccnc2ccccc12
Activity (HepG2): inactive | Activity (HL-60): inactive | Activity (CCRF-CEM): inactive | Activity (HeLa): inactive

SMILES: COC(=O)[C@H](CCCCN)NC(=O)CNC(=O)C(=O)[C@@H]1CCCN1C(=O)CNC(=O)c1ccnc2ccccc12
Activity (HepG2): inactive | Activity (HL-60): inactive | Activity (CCRF-CEM): inactive | Activity (HeLa): inactive

pIC50 [1]: 9.18 | pIC50 (Dipeptidyl peptidase 4): < 5.40
SMILES: Cc1ccc(CNC(=O)C(=O)[C@@H]2CCCN2C(=O)CNC(=O)c2ccnc3ccccc23)c(C)c1
Activity (HepG2): inactive | Activity (HL-60): inactive | Activity (CCRF-CEM): inactive | Activity (HeLa): inactive

pIC50 [1]: 6.51
SMILES: N#C[C@@H]1CC(F)(F)CN1C(=O)CNC(=O)c1ccnc2ccccc12

pIC50 [1]: 9.14 | pIC50 (Dipeptidyl peptidase 4): < 5.40
SMILES: CC(C)(C)NC(=O)CNC(=O)C(=O)[C@@H]1CCCN1C(=O)CNC(=O)c1ccnc2ccccc12
Activity (HepG2): inactive | Activity (HL-60): inactive | Activity (CCRF-CEM): inactive | Activity (HeLa): inactive

SMILES: COc1ccc(NC(=O)C(=O)[C@@H]2CCCN2C(=O)CNC(=O)c2ccnc3ccccc23)cc1
Activity (HepG2): inactive | Activity (HL-60): inactive | Activity (CCRF-CEM): inactive | Activity (HeLa): inactive

SMILES: O=C(NC12CC3CC(CC(C3)C1)C2)C(=O)[C@@H]1CCCN1C(=O)CNC(=O)c1ccnc2ccccc12
Activity (HepG2): inactive | Activity (HL-60): inactive | Activity (CCRF-CEM): inactive | Activity (HeLa): inactive

SMILES: COC(=O)CNC(=O)CNC(=O)C(=O)[C@@H]1CCCN1C(=O)CNC(=O)c1ccnc2ccccc12
Activity (HepG2): inactive | Activity (HL-60): inactive | Activity (CCRF-CEM): inactive | Activity (HeLa): inactive

SMILES: O=C(NC1CC1)C(=O)[C@@H]1CCCN1C(=O)CNC(=O)c1ccnc2ccccc12
Activity (HepG2): inactive | Activity (HL-60): inactive | Activity (CCRF-CEM): inactive | Activity (HeLa): inactive

SMILES: COC(=O)c1ccc(NC(=O)C(=O)[C@@H]2CCCN2C(=O)CNC(=O)c2ccnc3ccccc23)cc1
Activity (HepG2): inactive | Activity (HL-60): inactive | Activity (CCRF-CEM): inactive | Activity (HeLa): inactive

SMILES: CN(C)C(=O)CNC(=O)C(=O)[C@@H]1CCCN1C(=O)CNC(=O)c1ccnc2ccccc12
Activity (HepG2): inactive | Activity (HL-60): inactive | Activity (CCRF-CEM): inactive | Activity (HeLa): inactive

SMILES: COc1ccc(CNC(=O)CNC(=O)C(=O)[C@@H]2CCCN2C(=O)CNC(=O)c2ccnc3ccccc23)cc1OC
Activity (HepG2): inactive | Activity (HL-60): inactive | Activity (CCRF-CEM): inactive | Activity (HeLa): inactive

SMILES: COc1cccc(CNC(=O)C(=O)[C@@H]2CCCN2C(=O)CNC(=O)c2ccnc3ccccc23)c1
Activity (HepG2): inactive | Activity (HL-60): inactive | Activity (CCRF-CEM): inactive | Activity (HeLa): inactive

SMILES: O=C(NCC(=O)N1CCCC1)C(=O)[C@@H]1CCCN1C(=O)CNC(=O)c1ccnc2ccccc12
Activity (HepG2): inactive | Activity (HL-60): inactive | Activity (CCRF-CEM): inactive | Activity (HeLa): inactive

SMILES: COC(=O)[C@H](CO)NC(=O)CNC(=O)C(=O)[C@@H]1CCCN1C(=O)CNC(=O)c1ccnc2ccccc12
Activity (HepG2): inactive | Activity (HL-60): inactive | Activity (CCRF-CEM): inactive | Activity (HeLa): inactive
